# Laboratory results reported in US5922740A, “Heterocyclylcarbonyl substituted benzofuranyl-ureas” (Bayer Aktiengesellschaft, priority 1995, dated 1999).
# Assays:
# human monocytes = test: Endotoxin induced TNF release; type: cell-based; details: LPS 2 μg ml^-1, 18 to 24 hours, ELISA
# Protocol: 7. Preparation of Human Monocytes
# Blood was taken from normal donors. Monocytes were isolated from peripheral blood by density centrifugation, followed by centrifugal elutriation.
# 8. Endotoxin Induced TNF Release
# Monocytes (1×10^6 ml^-1) were stimulated with LPS (2 μg ml^-1) and coincubated with the compounds at different concentrations (10^-4 to 10 μg ml^-1) Compounds were dissolved in DMSO/medium (2% v/v). The cells were incubated in RPMI-1640 medium glutamine/FCS supplemented and at 37° C. in a humidified atmosphere with 5% CO2. After 18 to 24 hours TNF was determined in the supernatants by an human TNF specific ELISA (medgenix). Controls were nonstimulated and LPS stimulated monocytes without compounds. Example 2, 13 and 16 induce inhibition of LPS driven TNF activity in human monocytes (IC50 : 10^-3 to 1 μg ml^-1).
# B6D2F1 mice = test: Endotoxin induced shock lethality in mice; type: in vivo; details: galactosamine-sensitized mice, LPS 0.01 μg/mouse; compound intravenously 1 hour prior LPS, doses of 3 to 30 mg/kg
# Protocol: 9. Endotoxin Induced Shock Lethality in Mice
# B6D2F1 mice (n=10) were sensitized with galactosamine (600 mg/kg), and shock and lethality were triggered by LPS (0.01 μg/mouse). The compounds were administered intravenously 1 hour prior LPS. Controls were LPS challenged mice without compound. Mice were dying 8 to 24 hours post LPS challenge. Example 2, 13 and 16 reduced the endotoxin medicated mortality about 70% to 100% at doses of 3 to 30 mg/kg.
structure (smiles),measurement,setting,value
COc1ccc2c(NC(N)=O)c(C(=O)c3ccncc3)oc2c1 [Example 2],"IC50, inhibition of LPS driven TNF activity",human monocytes,10^-3 to 1 μg ml^-1
same,reduction of endotoxin mediated mortality,B6D2F1 mice,70% to 100
CC[n+]1ccc(C(=O)c2oc3cc(OC)ccc3c2NC(N)=O)cc1 [Example 13],"IC50, inhibition of LPS driven TNF activity",human monocytes,10^-3 to 1 μg ml^-1
same,reduction of endotoxin mediated mortality,B6D2F1 mice,70% to 100
Cc1ccc2c(NC(N)=O)c(C(=O)c3cccnc3)oc2c1 [Example 16],"IC50, inhibition of LPS driven TNF activity",human monocytes,10^-3 to 1 μg ml^-1
same,reduction of endotoxin mediated mortality,B6D2F1 mice,70% to 100
